Source: ChEMBL document CHEMBL3862022, “Synthesis and biological evaluation of lovastatin-derived aliphatic hydroxamates that induce reactive oxygen species” (Bioorg Med Chem Lett, 2016)
pIC50: −log10 of the molar value. Calls of active or inactive are those of the source. The calls are words filed in the database; no cut-off is given here.

Assays:
[1] = Induction of reactive oxygen species in human MDA-MB-231 cells at 10 uM after 24 hrs by DCFH-DA probe-based flow cytometric method; type: physicochemical, cell-based; settings: mda-mb-231, 24 h
[2] = Cytotoxicity against human PC3 cells assessed as growth inhibition after 48 hrs by SRB assay; type: functional, cell-based; settings: PC-3, 48 h
MDA-MB-231 [3] = assay: Induction of apoptosis in human MDA-MB-231 cells assessed as PARP cleavage by flow cytometric method; type: functional, cell-based
[4] = target: T1, Serine/threonine-protein kinase Chk1 (Homo sapiens) (UniProt O14757); assay: Induction of CHK1 phosphorylation in human MDA-MB-231 cells at 10 uM after 6 to 24 hrs by Western blot method; type: cell-based
T1 sequence (whole entry): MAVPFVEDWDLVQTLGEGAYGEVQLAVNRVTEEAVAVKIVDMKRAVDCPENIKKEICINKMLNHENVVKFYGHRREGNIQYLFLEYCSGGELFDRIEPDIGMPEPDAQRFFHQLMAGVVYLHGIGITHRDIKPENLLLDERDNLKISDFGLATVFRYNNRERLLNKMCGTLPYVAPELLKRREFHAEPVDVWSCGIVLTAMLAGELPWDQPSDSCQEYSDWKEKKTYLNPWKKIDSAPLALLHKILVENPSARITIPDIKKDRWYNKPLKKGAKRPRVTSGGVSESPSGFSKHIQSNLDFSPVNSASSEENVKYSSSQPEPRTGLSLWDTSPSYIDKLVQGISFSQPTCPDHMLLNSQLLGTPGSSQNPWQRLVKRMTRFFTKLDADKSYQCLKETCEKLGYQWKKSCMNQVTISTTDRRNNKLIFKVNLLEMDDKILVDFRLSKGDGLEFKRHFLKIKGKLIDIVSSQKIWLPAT

MDA-MB-231 [5] = assay: Induction of DNA damage in human MDA-MB-231 cells assessed as phosphorylation of gammaH2AX at IC50 to 3 times IC50 after 48 hrs by flow cytometric analysis; type: functional, cell-based
[6] = Cell cycle arrest in human MDA-MB-231 cells assessed as accumulation at S phase at 32 uM after 6 to 12 hrs by propidium iodide staining-based flow cytometric method; type: functional
[7] = Cytotoxicity against human MDA-MB-231 cells assessed as growth inhibition after 24 to 48 hrs by MTT assay; type: functional, cell-based
[8] = Cytotoxicity against human MCF7 cells assessed as growth inhibition after 24 to 48 hrs by MTT assay; type: functional, cell-based
[9] = target: Serine-protein kinase ATM (Homo sapiens) (UniProt Q13315); assay: Induction of ATM phosphorylation in human MDA-MB-231 cells at 10 uM after 6 to 24 hrs by Western blot method; type: cell-based
[10] = target: Serine/threonine-protein kinase Chk2 (Homo sapiens) (UniProt O96017); assay: Induction of CHK2 phosphorylation in human MDA-MB-231 cells at 10 uM after 6 to 24 hrs by Western blot method; type: cell-based
[11] = target: T2, Serine/threonine-protein kinase Chk1/2 (Homo sapiens) (UniProt O96017+O14757); assay: Induction of CHK1/2 phosphorylation in human MDA-MB-231 cells assessed as increase in p53 phosphorylation at 10 uM after 6 to 24 hrs by Western blot method; type: cell-based
[12] = target: T2, Serine/threonine-protein kinase Chk1/2 (Homo sapiens); assay: Induction of CHK1/2 phosphorylation in human MDA-MB-231 cells assessed as increase in p21 protein expression at 10 uM after 6 to 24 hrs by Western blot method; type: cell-based
MDA-MB-231 [13] = assay: Binding affinity to DNA minor groove in human MDA-MB-231 cells up to 100 uM after 20 mins by Hoechst 33342 staining-based fluorometric method; type: cell-based
[14] = Cytotoxicity against human IMR90 cells assessed as growth inhibition up to 40 uM after 24 to 48 hrs by MTT assay; type: toxicity, cell-based; settings: imr-90
[15] = Cytotoxicity against human T47D cells assessed as growth inhibition after 24 to 48 hrs by MTT assay; type: functional, cell-based
[16] = Induction of reactive oxygen species in human MDA-MB-231 cells at 30 uM after 24 hrs by DCFH-DA probe-based flow cytometric method; type: physicochemical, cell-based; settings: mda-mb-231, 24 h

T2 sequence (O96017 whole entry, looked up, one chain of several): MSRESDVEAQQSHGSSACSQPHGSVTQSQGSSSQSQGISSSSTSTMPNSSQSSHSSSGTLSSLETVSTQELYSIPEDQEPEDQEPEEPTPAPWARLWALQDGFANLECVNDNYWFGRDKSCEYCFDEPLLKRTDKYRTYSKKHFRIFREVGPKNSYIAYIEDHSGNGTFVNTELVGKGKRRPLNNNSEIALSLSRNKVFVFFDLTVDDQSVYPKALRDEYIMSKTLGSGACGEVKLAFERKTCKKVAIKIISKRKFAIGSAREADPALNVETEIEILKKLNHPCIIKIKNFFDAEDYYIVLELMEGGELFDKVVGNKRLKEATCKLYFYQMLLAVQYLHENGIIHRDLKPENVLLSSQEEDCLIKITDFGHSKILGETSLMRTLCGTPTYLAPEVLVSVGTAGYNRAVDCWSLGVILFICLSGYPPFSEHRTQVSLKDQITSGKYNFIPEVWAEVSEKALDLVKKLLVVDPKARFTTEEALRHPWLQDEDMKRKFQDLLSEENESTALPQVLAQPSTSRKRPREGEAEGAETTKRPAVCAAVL
Serine-protein kinase ATM (Homo sapiens), sequence (Q13315 whole entry): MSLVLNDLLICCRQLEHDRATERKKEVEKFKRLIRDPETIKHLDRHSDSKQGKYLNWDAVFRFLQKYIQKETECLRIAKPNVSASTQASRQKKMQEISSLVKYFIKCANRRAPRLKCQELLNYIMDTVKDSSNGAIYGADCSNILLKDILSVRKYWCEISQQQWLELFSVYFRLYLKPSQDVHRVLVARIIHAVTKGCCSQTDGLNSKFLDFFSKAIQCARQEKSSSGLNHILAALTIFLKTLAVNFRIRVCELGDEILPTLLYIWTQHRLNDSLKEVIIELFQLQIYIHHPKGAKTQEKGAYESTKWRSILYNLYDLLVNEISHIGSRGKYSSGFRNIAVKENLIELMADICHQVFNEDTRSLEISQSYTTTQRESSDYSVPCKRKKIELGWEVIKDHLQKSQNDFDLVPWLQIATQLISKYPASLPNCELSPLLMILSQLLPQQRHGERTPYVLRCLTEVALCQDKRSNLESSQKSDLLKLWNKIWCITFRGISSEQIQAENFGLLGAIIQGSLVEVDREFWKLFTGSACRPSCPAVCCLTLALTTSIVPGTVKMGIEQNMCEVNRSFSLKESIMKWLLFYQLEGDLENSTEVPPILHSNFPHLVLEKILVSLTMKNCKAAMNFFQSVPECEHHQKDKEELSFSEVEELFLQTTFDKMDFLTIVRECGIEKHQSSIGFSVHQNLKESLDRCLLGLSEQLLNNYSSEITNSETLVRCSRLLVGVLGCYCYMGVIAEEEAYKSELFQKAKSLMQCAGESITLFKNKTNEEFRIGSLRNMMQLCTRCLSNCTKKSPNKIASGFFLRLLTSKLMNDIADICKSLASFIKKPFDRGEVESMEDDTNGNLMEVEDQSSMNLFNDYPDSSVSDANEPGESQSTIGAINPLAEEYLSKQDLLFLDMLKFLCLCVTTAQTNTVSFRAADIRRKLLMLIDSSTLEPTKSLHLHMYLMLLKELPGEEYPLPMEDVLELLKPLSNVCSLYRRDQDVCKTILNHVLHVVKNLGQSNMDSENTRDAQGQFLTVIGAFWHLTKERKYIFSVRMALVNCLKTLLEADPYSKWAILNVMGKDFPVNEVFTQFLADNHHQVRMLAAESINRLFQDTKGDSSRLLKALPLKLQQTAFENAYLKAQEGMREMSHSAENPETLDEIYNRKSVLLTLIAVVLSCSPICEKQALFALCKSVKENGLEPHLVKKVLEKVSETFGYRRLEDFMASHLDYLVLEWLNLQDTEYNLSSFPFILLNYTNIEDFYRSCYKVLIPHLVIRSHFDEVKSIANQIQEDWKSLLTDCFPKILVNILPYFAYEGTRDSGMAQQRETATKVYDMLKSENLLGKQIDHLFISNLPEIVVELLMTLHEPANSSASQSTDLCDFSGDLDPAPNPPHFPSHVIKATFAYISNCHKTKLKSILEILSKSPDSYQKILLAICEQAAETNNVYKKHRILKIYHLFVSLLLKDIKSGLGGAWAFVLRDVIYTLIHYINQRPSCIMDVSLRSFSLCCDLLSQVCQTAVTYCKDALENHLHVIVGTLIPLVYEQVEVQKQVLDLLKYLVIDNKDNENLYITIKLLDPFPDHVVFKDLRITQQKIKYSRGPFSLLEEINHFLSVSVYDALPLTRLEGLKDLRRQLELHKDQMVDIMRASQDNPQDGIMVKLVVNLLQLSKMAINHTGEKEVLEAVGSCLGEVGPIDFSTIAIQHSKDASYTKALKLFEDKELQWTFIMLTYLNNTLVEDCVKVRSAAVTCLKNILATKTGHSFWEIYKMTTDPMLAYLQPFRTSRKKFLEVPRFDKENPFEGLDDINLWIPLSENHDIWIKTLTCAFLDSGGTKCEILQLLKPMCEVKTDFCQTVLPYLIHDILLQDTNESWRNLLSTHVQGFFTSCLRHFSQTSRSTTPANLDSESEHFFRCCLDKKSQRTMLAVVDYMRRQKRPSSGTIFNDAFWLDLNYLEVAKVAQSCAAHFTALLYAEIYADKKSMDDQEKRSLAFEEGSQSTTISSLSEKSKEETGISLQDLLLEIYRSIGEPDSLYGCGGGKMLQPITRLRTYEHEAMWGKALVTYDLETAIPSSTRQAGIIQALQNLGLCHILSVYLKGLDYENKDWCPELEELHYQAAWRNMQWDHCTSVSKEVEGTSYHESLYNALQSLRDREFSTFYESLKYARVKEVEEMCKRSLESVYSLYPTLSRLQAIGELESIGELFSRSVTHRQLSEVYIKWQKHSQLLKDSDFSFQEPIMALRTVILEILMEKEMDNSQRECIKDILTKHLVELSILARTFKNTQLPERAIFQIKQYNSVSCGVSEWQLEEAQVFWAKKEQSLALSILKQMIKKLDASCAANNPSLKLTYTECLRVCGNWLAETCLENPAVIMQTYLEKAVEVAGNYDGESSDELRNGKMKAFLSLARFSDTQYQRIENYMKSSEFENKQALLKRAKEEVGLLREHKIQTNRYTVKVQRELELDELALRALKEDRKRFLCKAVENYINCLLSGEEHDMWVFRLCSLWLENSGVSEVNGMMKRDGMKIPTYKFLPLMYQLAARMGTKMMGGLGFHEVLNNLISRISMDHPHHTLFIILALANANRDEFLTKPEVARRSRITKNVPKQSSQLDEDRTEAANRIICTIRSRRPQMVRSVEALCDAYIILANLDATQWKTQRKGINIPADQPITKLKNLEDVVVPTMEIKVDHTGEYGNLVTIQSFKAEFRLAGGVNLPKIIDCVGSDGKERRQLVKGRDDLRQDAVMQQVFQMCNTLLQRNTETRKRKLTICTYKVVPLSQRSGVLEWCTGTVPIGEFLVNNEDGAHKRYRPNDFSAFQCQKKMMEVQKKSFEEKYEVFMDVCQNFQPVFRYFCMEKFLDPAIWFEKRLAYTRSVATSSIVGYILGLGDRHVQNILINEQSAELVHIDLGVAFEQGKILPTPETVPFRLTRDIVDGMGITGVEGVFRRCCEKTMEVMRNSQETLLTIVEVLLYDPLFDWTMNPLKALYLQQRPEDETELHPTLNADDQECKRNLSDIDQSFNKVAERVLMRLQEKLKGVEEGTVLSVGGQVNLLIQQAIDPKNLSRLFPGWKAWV
Serine/threonine-protein kinase Chk2 (Homo sapiens), sequence (O96017 whole entry): as the sequence (O96017 whole entry, looked up, one chain of several) above

| SMILES | Activity [1] | pIC50 [2] | further results |
| --- | --- | --- | --- |
| CC[C@H](C)C(=O)O[C@H]1C[C@@H](C)C=C2C=C[C@H](C)[C@H](CC[C@@H](O)C[C@@H](CC(=O)NO)OC(C)=O)[C@H]21 | Active | 4.94 |  |
| CC[C@H](C)C(=O)O[C@H]1C[C@@H](C)C=C2C=C[C@H](C)[C@H](CC[C@@H](O)C[C@@H](CC(=O)NO)OC(=O)c3ccc4ccccc4c3)[C@H]21 | Active | 4.76 |  |
| CC[C@H](C)C(=O)O[C@H]1C[C@@H](C)C=C2C=C[C@H](C)[C@H](CC[C@@H](O)C[C@@H](CC(=O)NO)OC(=O)C(C)(C)C)[C@H]21 | Active | 5.14 |  |
| CC[C@H](C)C(=O)O[C@H]1C[C@@H](C)C=C2C=C[C@H](C)[C@H](CC[C@@H](O)C[C@@H](CC(=O)NO)OC(=O)c3ccccc3)[C@H]21 | Active | 5.48 | Activity (MDA-MB-231 [3]): Dose-dependent effect; Activity [4]: Active; Activity (MDA-MB-231 [5]): Active; Activity [6]: Active; pIC50 [7]: 4.40 to 4.52; pIC50 [8]: 4.40 to 4.52; Activity [9]: Active; Activity [10]: Active; Activity [11]: Active; Activity [12]: Active; Activity (MDA-MB-231 [13]): Active; Activity [14]: Non-Toxic; pIC50 [15]: 4.40 to 4.52 |
| C[C@H]1C=C2C=C[C@H](C)[C@H](CC[C@@H](O)C[C@H](O)CC(=O)NO)[C@H]2[C@@H](O)C1 | Active | < 4.52 |  |
| CC[C@H](C)C(=O)O[C@H]1C[C@@H](C)C=C2C=C[C@H](C)[C@H](CC[C@@H]3C[C@@H](O)CC(=O)O3)[C@H]21 [LOVASTATIN] |  | 5.27 | pIC50 [7]: < 4.40; pIC50 [8]: < 4.40; Activity [9]: Active; Activity [16]: Active; Activity [11]: Active; pIC50 [15]: < 4.40 |
| CC[C@H](C)C(=O)O[C@H]1C[C@@H](C)C=C2C=C[C@H](C)[C@H](CC[C@@H](O)C[C@@H](CC(=O)NO)OC(=O)c3ccc(Cl)cc3)[C@H]21 | Active | 4.66 |  |
| CC[C@H](C)C(=O)O[C@H]1C[C@@H](C)C=C2C=C[C@H](C)[C@H](CC[C@@H](O)C[C@@H](CC(=O)NO)OC(=O)c3ccc(OC(F)(F)F)cc3)[C@H]21 | Active | 4.69 |  |
| CC[C@H](C)C(=O)O[C@H]1C[C@@H](C)C=C2C=C[C@H](C)[C@H](CC[C@@H](O)C[C@@H](CC(=O)NO)OC(=O)CCc3ccccc3)[C@H]21 | Active | 5.21 |  |
| CC[C@H](C)C(=O)O[C@H]1C[C@@H](C)C=C2C=C[C@H](C)[C@H](CC[C@@H](O)C[C@@H](CC(=O)NO)OC(=O)Cc3ccccc3)[C@H]21 | Active | 5.24 |  |
| CC[C@H](C)C(=O)O[C@H]1C[C@@H](C)C=C2C=C[C@H](C)[C@H](CC[C@@H](O)C[C@@H](CC(=O)NO)OC(=O)c3ccc([N+](=O)[O-])cc3)[C@H]21 | Active | 5.09 |  |
